Several values for one entry are separate records, joined by “and”; a condition that tells them apart may be missing. Equal values may be shown once. Inconclusive results and toxic doses are left out. Rule as the data show it: active = T/C of 150% or more; inactive = T/C below 125%.
System: L1210 leukemia ip in BDF1 mice, survival T/C
Test: NCI In Vivo Anticancer Drug Screen. Data for tumor model L1210 Leukemia (intraperitoneal) in B6D2F1 (BDF1) mice
Details: endpoint: mean survival time, higher = longer survival
Method in brief: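 Transplanted-tumor mice were given test agent; controls received vehicle only. Survival readings from the two groups were divided (treated over control).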

[1] = dose: 25.0 mg/kg/injection, schedule: Q04DX003 (ip), vehicle: saline
[2] = dose: 50.0 mg/kg/injection, schedule: Q04DX003 (ip), vehicle: saline
[3] = dose: 100.0 mg/kg/injection, schedule: Q01DX001 (ip), vehicle: saline
[4] = dose: 100.0 mg/kg/injection, schedule: Q04DX003 (ip), vehicle: Klucel (hydroxypropylcellulose) (HPC)
[5] = dose: 200.0 mg/kg/injection, schedule: Q04DX003 (ip), vehicle: Klucel (hydroxypropylcellulose) (HPC)
[6] = dose: 400.0 mg/kg/injection, schedule: Q04DX003 (ip), vehicle: Klucel (hydroxypropylcellulose) (HPC)
[7] = dose: 100.0 mg/kg/injection, schedule: Q01DX009 (ip), vehicle: saline
[8] = dose: 100.0 mg/kg/injection, schedule: Q04DX003 (ip), vehicle: saline
[9] = dose: 200.0 mg/kg/injection, schedule: Q01DX009 (ip), vehicle: saline
[10] = dose: 200.0 mg/kg/injection, schedule: Q04DX003 (ip), vehicle: saline
[11] = dose: 400.0 mg/kg/injection, schedule: Q01DX009 (ip), vehicle: saline
[12] = dose: 400.0 mg/kg/injection, schedule: Q04DX003 (ip), vehicle: saline
[13] = dose: 100.0 mg/kg/injection, schedule: Q01DX009 (ip), vehicle: Klucel (hydroxypropylcellulose) (HPC)
[14] = dose: 200.0 mg/kg/injection, schedule: Q01DX009 (ip), vehicle: Klucel (hydroxypropylcellulose) (HPC)
[15] = dose: 400.0 mg/kg/injection, schedule: Q01DX009 (ip), vehicle: Klucel (hydroxypropylcellulose) (HPC)
[16] = dose: 100.0 mg/kg/injection, schedule: Q04DX002 (ip), vehicle: saline with Tween-80
[17] = dose: 200.0 mg/kg/injection, schedule: Q04DX002 (ip), vehicle: saline with Tween-80
[18] = dose: 400.0 mg/kg/injection, schedule: Q04DX002 (ip), vehicle: saline with Tween-80
[19] = dose: 100.0 mg/kg/injection, schedule: Q04DX002 (ip), vehicle: Klucel (hydroxypropylcellulose) (HPC)
[20] = dose: 200.0 mg/kg/injection, schedule: Q04DX002 (ip), vehicle: Klucel (hydroxypropylcellulose) (HPC)
[21] = dose: 400.0 mg/kg/injection, schedule: Q04DX002 (ip), vehicle: Klucel (hydroxypropylcellulose) (HPC)
[22] = dose: 100.0 mg/kg/injection, schedule: Q01DX009 (ip), vehicle: saline with Tween-80
[23] = dose: 200.0 mg/kg/injection, schedule: Q01DX009 (ip), vehicle: saline with Tween-80
[24] = dose: 5.0 mg/kg/injection, schedule: Q01DX001 (ip), vehicle: saline

Measured: T/C

COC(=O)/C=C\C[P+](c1ccccc1)(c1ccccc1)c1ccccc1
inactive: dose: 12.5 mg/kg/injection, schedule: Q04DX003 (ip), vehicle: saline 103 % of control | [1] 97 % of control | [2] 100 % of control | [3] 101 % of control

CCc1[nH]c(=S)ncc1-c1ccc([N+](=O)[O-])cc1O
inactive: [4] 93 % of control | [5] 93 % of control | [6] 106 % of control

CCC(=O)n1ncc2ccc([N+](=O)[O-])cc21
inactive: dose: 100.0 mg/kg/injection, schedule: Q04DX003 (ip), vehicle: saline with Tween-80 103 % of control | dose: 200.0 mg/kg/injection, schedule: Q04DX003 (ip), vehicle: saline with Tween-80 88 % of control | dose: 400.0 mg/kg/injection, schedule: Q04DX003 (ip), vehicle: saline with Tween-80 93 % of control

O=C(O)CCC1CCC(=O)OC1=O (centres undefined)
inactive: [7] 101 % of control | [8] 98 % of control | [9] 100 % of control | [10] 89 % of control | [11] 99 % of control | [12] 94 % of control

O=C(Nc1cccc(F)c1)Nc1cc(Cl)ccc1Cl
inactive: [13] 96 % of control and 86 % of control | [14] 102 % of control | [15] 95 % of control and 92 % of control

COc1cc2c(cc1OCc1ccccc1)C(c1cc(OC)c(OC)c(OC)c1)=C1C(=O)OCC1C2 (centres undefined)
inactive: [3] 98 % of control | dose: 200.0 mg/kg/injection, schedule: Q01DX001 (ip), vehicle: saline 97 % of control | dose: 400.0 mg/kg/injection, schedule: Q01DX001 (ip), vehicle: saline 97 % of control

CCCS(=O)(=O)N(CC)CC
inactive: [16] 97 % of control | [17] 101 % of control | [18] 87 % of control

CC(C)(C)SCCN1C(=O)C2C3CCC(O3)C2C1=O (centres undefined)
inactive: [19] 104 % of control | [20] 100 % of control | [21] 107 % of control

CCOC(=O)C1CCCCC1O (centres undefined)
inactive: dose: 50.0 mg/kg/injection, schedule: Q01DX009 (ip), vehicle: saline with Tween-80 103 % of control | [22] 95 % of control | [16] 97 % of control | [23] 103 % of control | [17] 97 % of control | [18] 104 % of control

Cc1ccc(S(=O)(=O)NCC(=O)NCCC#N)cc1
inactive: dose: 100.0 mg/kg/injection, schedule: Q01DX001 (ip), vehicle: Klucel (hydroxypropylcellulose) (HPC) 103 % of control | dose: 200.0 mg/kg/injection, schedule: Q01DX001 (ip), vehicle: Klucel (hydroxypropylcellulose) (HPC) 97 % of control | dose: 400.0 mg/kg/injection, schedule: Q01DX001 (ip), vehicle: Klucel (hydroxypropylcellulose) (HPC) 92 % of control

COC(=O)/C=C(\C)Nc1ccc(C(=O)C2CCCCC2)cc1
inactive: dose: 100.0 mg/kg/injection, schedule: Q01DX001 (ip), vehicle: other 90 % of control | dose: 200.0 mg/kg/injection, schedule: Q01DX001 (ip), vehicle: other 95 % of control | dose: 400.0 mg/kg/injection, schedule: Q01DX001 (ip), vehicle: other 96 % of control

CCOc1ccccc1NC(=O)Nc1ccccc1OC
inactive: [13] 103 % of control | [4] 103 % of control | [14] 98 % of control | [5] 96 % of control | [15] 98 % of control | [6] 100 % of control

O=C(CNC(=O)Nc1ccc(Cl)c(Cl)c1)N/N=C/c1ccc(F)cc1
inactive: [22] 98 % of control | [23] 96 % of control | dose: 400.0 mg/kg/injection, schedule: Q01DX009 (ip), vehicle: saline with Tween-80 98 % of control

CCCCCCCCCN(CCCC)CCCC
inactive: dose: 25.0 mg/kg/injection, schedule: Q01DX001 (ip), vehicle: saline with Tween-80 95 % of control | dose: 50.0 mg/kg/injection, schedule: Q01DX001 (ip), vehicle: saline with Tween-80 88 % of control | dose: 100.0 mg/kg/injection, schedule: Q01DX001 (ip), vehicle: saline with Tween-80 102 % of control

COC(=O)c1c(O)cc(OC)cc1OC
inactive: dose: 100.0 mg/kg/injection, schedule: Q01DX009 (ip), vehicle: other 108 % of control | [8] 95 % of control | dose: 200.0 mg/kg/injection, schedule: Q01DX009 (ip), vehicle: other 108 % of control | [10] 97 % of control | dose: 400.0 mg/kg/injection, schedule: Q01DX009 (ip), vehicle: other 108 % of control | [12] 111 % of control

C[N+]1(C)C2CC(O)CC1C1OC12 (centres undefined)
inactive: dose: 1.2 mg/kg/injection, schedule: Q01DX001 (ip), vehicle: saline 95 % of control | dose: 2.5 mg/kg/injection, schedule: Q01DX001 (ip), vehicle: saline 97 % of control | [24] 100 % of control

Cc1ccc(NC2=CC(=O)c3ccccc3C2=O)cc1
inactive: dose: 75.0 mg/kg/injection, schedule: Q01DX001 (ip), vehicle: carboxymethylcellulose (CMC) 93 % of control | dose: 150.0 mg/kg/injection, schedule: Q01DX001 (ip), vehicle: carboxymethylcellulose (CMC) 95 % of control

CCCCCCCCCCP(=O)(CCCC)CCCC
inactive: dose: 1.56 mg/kg/injection, schedule: Q01DX009 (ip), vehicle: Klucel (hydroxypropylcellulose) (HPC) 92 % of control | dose: 3.12 mg/kg/injection, schedule: Q01DX009 (ip), vehicle: Klucel (hydroxypropylcellulose) (HPC) 95 % of control | dose: 6.25 mg/kg/injection, schedule: Q01DX009 (ip), vehicle: Klucel (hydroxypropylcellulose) (HPC) 97 % of control | dose: 12.5 mg/kg/injection, schedule: Q01DX009 (ip), vehicle: Klucel (hydroxypropylcellulose) (HPC) 95 % of control | [13] 100 % of control

Cc1ccc(S/N=C\c2ccccc2O)cc1
inactive: dose: 50.0 mg/kg/injection, schedule: Q04DX002 (ip), vehicle: Klucel (hydroxypropylcellulose) (HPC) 93 % of control | [19] 100 % of control | [20] 107 % of control and 91 % of control | [21] 91 % of control

CC(C)OCCCN=C(N)N
inactive: dose: 12.5 mg/kg/injection, schedule: Q01DX009 (ip), vehicle: saline 100 % of control | dose: 25.0 mg/kg/injection, schedule: Q01DX009 (ip), vehicle: saline 98 % of control | [1] 101 % of control | dose: 50.0 mg/kg/injection, schedule: Q01DX009 (ip), vehicle: saline 102 % of control and 104 % of control | [2] 96 % of control | [8] 96 % of control

C[N+](C)(C)C1(c2ccc(F)cc2)CCCCC1
inactive: [24] 111 % of control | dose: 10.0 mg/kg/injection, schedule: Q01DX001 (ip), vehicle: saline 105 % of control | dose: 20.0 mg/kg/injection, schedule: Q01DX001 (ip), vehicle: saline 111 % of control

CC(=O)Nc1ccccc1.[Hg]
inactive: dose: 1.56 mg/kg/injection, schedule: Q01DX009 (ip), vehicle: saline with Tween-80 90 % of control | dose: 3.13 mg/kg/injection, schedule: Q01DX009 (ip), vehicle: saline with Tween-80 88 % of control

CN(C)C(=O)c1cccc(N)c1
inactive: [7] 101 % of control | [8] 103 % of control | [9] 98 % of control | [10] 100 % of control | [11] 90 % of control | [12] 102 % of control

CNc1ncc2nc(C)c(=O)n(C)c2n1
inactive: dose: 50.0 mg/kg/injection, schedule: Q01DX009 (ip), vehicle: Klucel (hydroxypropylcellulose) (HPC) 98 % of control | [13] 95 % of control

OCCOC(O)C(Cl)(Cl)Cl (centres undefined)
inactive: dose: 100.0 mg/kg/injection, schedule: Q04DX002 (ip), vehicle: saline 100 % of control | dose: 200.0 mg/kg/injection, schedule: Q04DX002 (ip), vehicle: saline 92 % of control | dose: 400.0 mg/kg/injection, schedule: Q04DX002 (ip), vehicle: saline 95 % of control

— PubChem BioAssay AID248 (DTP/NCI, 2004)
